Experimental data published in article PMC3669539, “Explant cultures of Rpe65^−/− mouse retina: a model to investigate cone opsin trafficking” (Molecular Vision, 2013).

Target: T1, mouse UV cone opsin (Mus musculus, UniProt P51491)
T1 construct: gene Opn1sw; pMT-2 vector, COS-1 cell membranes; transducin from bovine retina as read-out
T1 sequence (P51491 1-346): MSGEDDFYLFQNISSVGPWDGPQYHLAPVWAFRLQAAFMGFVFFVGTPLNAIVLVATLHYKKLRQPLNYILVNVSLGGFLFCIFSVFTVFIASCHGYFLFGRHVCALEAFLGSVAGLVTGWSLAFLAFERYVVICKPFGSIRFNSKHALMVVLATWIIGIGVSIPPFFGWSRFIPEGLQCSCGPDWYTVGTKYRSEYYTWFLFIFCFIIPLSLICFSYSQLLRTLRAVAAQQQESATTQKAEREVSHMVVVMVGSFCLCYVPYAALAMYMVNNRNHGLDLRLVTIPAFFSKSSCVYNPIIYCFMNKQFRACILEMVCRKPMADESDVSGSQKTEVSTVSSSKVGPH
Experiment: transducin activation, radioactive GTPgammaS35 filter-binding assay
Assay type: biochemical
Details: agonist, 20 or 200 µM; COS-1 membranes, bovine transducin 2.5 µM, 3 µM GTPgammaS, pH 6.4, 50 mM MgCl2, dim red light

CC1=C(/C=C/C(C)=C/C=C/C(C)=C/C(=O)O)C(C)(C)CCC1 [all-trans retinoic acid]
transducin activation, radioactive GTPgammaS35 filter-binding assay: RA, on the other hand, did increase mouse UV-opsin activity significantly
